Entries after “also recorded” stand apart in the source; their conditions may differ.
Assays:
[1] = Body weight changes in doxorubicin cardiotoxicity mouse model; type: in vivo; conditions: doxorubicin and vehicle treated mice
Method: (§5) The AAV-circINSR construct was packaged into AAV9 and injected adult male mice (12 weeks) with a single dose of 2×10^12 viral genomes/mouse or with the same amount of AAV9-empty control vectors. After two weeks to allow full AAV mediated gene expression, the mice received a cumulative dose of 25 mg/kg/bw doxorubicin over a course of 5 weeks and were sacrificed 1 week later after echocardiography was performed (FIG. 4A).
(§6) C57BL/6 N mice of 8 weeks of age were injected (intraperitoneally) with doxorubicin at a dose of 5 mg/kg once a week for consecutive 5 weeks. One week later after the last doxorubicin treatment, echocardiography data were recorded by an independent blinded researcher using the Vevo 2100 system (Fujifilm Visulasonics, Inc). […] Echocardiography data were analyzed using standard imaging protocols (M-mode and B-mode) for global cardiac volumes and functioning using the Vevostrain software (Fujifilm Visulasonics, Inc). […] AAV9 (adeno-associated virus serotype 9) was injected (intravenously) 2 weeks before first doxorubicin injection. Animal experiments were randomized and blinded with an internal number.

mouse heart = assay: RT-qPCR expression analysis in mouse heart tissue; type: in vivo
Method: (§1) RNA isolation from cell culture and heart tissue was done using Trifast (Peqlab) as per the manufacturer's instructions. Isolated RNA (500 ng-1000 ng) was reversed transcribed with random primer using iScript Select cDNA synthesis kit (Biorad). Real-Time quantative PCR was done with iQ SYBR Green mix (Biorad) on C1000 Touch Thermocycler (Biorad) using specific primer pairs. For amplification of circular RNAs, divergent primers were used while normal linear transcripts were amplified by convergent primers as usual. For RNase R resistant assay RNA was incubated with RNase R (Biozym Scientific) at 37° C. for 10 minutes and heat […] at 95° C. for three minutes. RNA was then reverse transcribed and amplified by specific PCR primers as mentioned before.

circulating circINSR = assay: circINSR level in mouse plasma; type: in vivo; conditions: doxorubicin vs PBS control
Excerpt: NcRNAs can be released into the extra-cellular space through passive mechanisms (e.g. necrosis of cells) or actively within secreted microvesicles^20. Since they can be readily isolated and measured from body fluids such as blood, these circulating ncRNAs have gained much attention as potential biomarkers for various diseases^21, 22. Indeed, ot was possible to detect circINSR in human and murine plasma (FIG. 9A,B). Strikingly, levels of circulating circINSR were diminished in mice treated with doxorubicin, which warrants further investigation of circINSR as a marker for anthracycline-related heart failure. Then the presence of circINSR in exosomes isolated from HL-1 cell culture supernatants was tested. […] To further corroborate the findings, a circINSR knock-out cell line was generated. Using a dual guideRNA CRISPR/Cas9 approach the majority of the circINSR forming exon was excised (FIG. 18A,B). Expectedly, this not only abrogated circINSR expression but also INSR protein expression (FIG. 18C,D). Then this cell line was used to overexpress circINSR via transfection with pcDNA3.1.
RNA isolation from cell culture and heart tissue was done using Trifast (Peqlab) as per the manufacturer's instructions. Isolated RNA (500 ng-1000 ng) was reversed transcribed with random primer using iScript Select cDNA synthesis kit (Biorad). […]

apoptotic cardiomyocytes = assay: TUNEL and cardiac troponin T co-staining of heart sections; type: in vivo, mouse; conditions: transversal heart sections, doxorubicin model; circINSR given as AAV9
Method: (§2) In addition to apoptosis, doxorubicin is known to cause cardiomyocyte atrophy^12 (G). Thus, histopathology analyses were performed on transversal heart section.
Cells were fixed with 4% paraformaldehyde for twenty minutes at room temperature and then permeabilized with ice-cold 0.1% Triton-X-100 in PBS for two minutes at room temperature. Next cells were incubated with enzyme labelling solution provided with In Situ cell death detection kit (Roche) for 1 hour at 37° C. For negative staining, enzyme was not added to the labelling solution. Cells were then washed and incubated with Dapi for 15 minutes. To specifically label neonatal rat cardiomyocytes and hipsc-CM, cells were co-stained with cardiac Troponin T (Thermofisher) after Tunel staining. Images were taken with Nikon Eclipse Ti microscope and images were analyzed with NIS Elements. For analysis in each case, ten different images were analyzed from different regions and average value was taken. Similarly, cryosections of heart were also processed for staining. Numerous images covering complete heart section was taken and Tunel positive nuclei were counted in each field. Average value for each heart was calculated.

cardiomyocytes = assay: Cardiomyocyte size on wheat germ agglutinin stained heart sections; type: in vivo, mouse; conditions: WGA stained heart sections, doxorubicin model; circINSR given as AAV9
Method: as §2
Cryosections of heart were stained with Alexa Fluor 488 labelled wheat germ agglutinin (Invitrogen) and dapi. Images were taken with Nikon Eclipse Ti microscope and images were analyzed with NIS Elements. For each heart 5 to 10 images were randomly taken from different regions of the section and minimum two hundred cells were measured and average value was taken for each heart.

HL-1 cells [2] = assay: Annexin V & 7-AAD staining (apoptosis); type: cell-based, mouse; conditions: HL-1 cells treated with doxorubicin 0.25 μM 48 h
Method: (§3) HL-1 cells were cultured in Claycomb medium together with 10% FBS, norepinephrine, L-Glutamine and pencillin/streptomycin as manufacturer's protocol. 3T3 and RAW264.7 cells were cultured in DMEM with 10% FBS and pencillin/streptomycin. Neonatal rat cardiomyocytes (NRCM) were isolated from one to three-day old rat babies by using the Neonatal Heart Dissociation Kit (Miltenyi). Human iPSC derived cardiomyocytes (hiPSC-cm) were differentiated at the lab of IMTTS. All the cells were treated with 0.25 μM Doxorubicin (Sigma-Aldrich) for 48 hours. circ-Insr siRNA (Eurofins), in vitro circular RNA and overexpression plasmid were transfected with Lipofectamine 2000 (Life Technologies) in OptiMEM medium. NRCM and hipsc-CM were transduced by AAV6 (MOI: 1*10^4) for 72 hours.
FlowCellect Annexin Red kit (Millipore) was used to stain apoptotic cells as per the manufacturer instruction. Briefly, cells were seeded in 12 well plate and next day treated with 0.25 μM Doxorubicin in normal medium with 10% FBS for forty-eight hours. Then cells were trypsinized and harvested and stained with Annexin-V for 15 minutes at 37° C. in 1× assay buffer. Annexin-V stained cells were centrifuged and washed with 1× assay buffer. Next cells were incubated with 7-AAD for 5 minutes and acquired on Guava (Millipore) flow cytometer. Data was analyzed with FLOWJO software.

HL-1 cells [3] = assay: WST-1 assay (cell viability); type: cell-based, mouse; conditions: HL-1 cells treated with doxorubicin 0.25 μM 48 h
Method: as §3
WST-1 assay was performed using Cell Proliferation Reagent WST-1 (Roche) as per the manufacturer instruction. Briefly, HL-1 cells were seeded in 96 well plate and next day treated with 0.25 μM Doxorubicin in normal medium with 10% FBS for forty-eight hours. Next, 10 μL WST1 reagent was added and incubated for 1 hour followed by the absorbance measurement (450 nm) at HT Synergy (Biotek) plate reader.

HL-1 cells [4] = assay: RT-qPCR expression in HL-1 cells; type: cell-based, mouse; conditions: for expression of circ-Insr: 24 h, epirubicin 1 and 5 μM, daunorubicin 1.25 and 2.5 μM, paclitaxel 0.1 and 0.5 μM
Method: as §3, with “All the cells were treated with 0.25 μM Doxorubicin (Sigma-Aldrich) for 48 hours. circ-Insr siRNA (Eurofins), in vitro circular RNA and overexpression plasmid were transfected with Lipofectamine 2000 (Life Technologies) in OptiMEM medium.” left out
as §1

HL-1 cells [5] = assay: mtDNA copy number measurement; type: cell-based, mouse; conditions: doxorubicin 0.25 μM 48 h, circ-Insr by overexpression plasmid
Method: (§4) Based on the results of the foregoing examples, it was reasoned that circ-Insr could interact with SSBP1. To further confirm the interaction between circ-Insr and SSBP1, siRNA mediated circ-Insr knock-down was applied in HL-1 cells. Next, RNA pulldown was performed with circ-Insr and scramble biotinylated probes. RT-qPCR confirmed that decrease of circ-Insr appeared both in input and circ-Insr pulldown group (FIG. 23A). […] Therefore, we assumed that circ-Insr is a cofactor of SSBP1 resulting in the regulation of mitochondrial function in cardiomyocytes by stabilizing mtDNA. […] Furthermore, mito-damage assay was applied to measure the changes in mitochondrial membrane potential (MMP). […] Next, we co-transfected HL-1 cells with pcDNA-circ-Insr and SSBP1 siRNA and examined cell viability using the WST assay to explore whether SSBP1 participated in the circ-Insr overexpression-mediated therapy of doxorubicin-cardiotoxicity. RT-qPCR indicated SSBP1 siRNA could downregulate endogenous SSBP1 expression (FIG. 23G).
The ratio of mtDNA to genomic DNA was calculated by dividing copies of CYTB with copies of ACTB in each experiment (Li J, Chan M C, Yu Y, Bei Y H, Chen P, Zhou Q L, et al. miR-29b contributes to multiple types of muscle atrophy. Nature communications. 2017; 8). […] Fluorescence was measured during the last step of each cycle using the SYBR channel. […]

HL-1 cells [6] = assay: Mito-damage assay, mitochondrial membrane potential; type: cell-based, mouse; conditions: doxorubicin 0.25 μM 48 h
Method: as §4

[7] = human patients; cited from earlier work
C57BL/6 N mice = assay: Echocardiography in mouse model of chronic doxorubicin-induced cardiotoxicity
Method: as §5, §6

[8] = doxorubicin treated mice, in words

## COc1cccc2c1C(=O)c1c(O)c3c(c(O)c1C2=O)C[C@@](O)(C(=O)CO)C[C@@H]3O[C@H]1C[C@H](N)[C@H](O)[C@H](C)O1 [doxorubicin]
[1]
  body weight: significantly halted the weight gain
Mouse heart; doxorubicin treated mice vs PBS control
  Brca1 mRNA expression in hearts: significantly lower levels
Mouse heart; mouse heart, doxorubicin 5 mg/kg once a week for 5 weeks
  circINSR expression in heart: significant decrease; also recorded: downregulation
Circulating circINSR
  levels of circulating circINSR: diminished
Apoptotic cardiomyocytes
  apoptotic cardiomyocytes (TUNEL / cTNT): strong induction of apoptosis
cardiomyocytes
  cardiomyocyte size: atrophic response
HL-1 cells [2]
  apoptotic cells (Annexin V): increased the number of apoptotic cells
HL-1 cells [3]
  cell viability (WST-1): significantly diminished; also recorded: impair
HL-1 cells [4]; doxorubicin 0.25 μmol/L 48 h
  circINSR expression: downregulation
HL-1 cells [5]
  mtDNA copy number / mtDNA content: significantly reduced
HL-1 cells [6]
  mitochondrial membrane potential (MMP): impair
[7]
  underlying cause in heart transplantation patients, share of all cases: 2-3%
C57BL/6 N mice; Mean, mice with doxorubicin, cumulative 25 mg/kg over 5 weeks
  Fractional Shortening: significant reduction
C57BL/6 N mice; [8]
  left ventricular anterior and posterior wall thickness: decreased
  left ventricular volume: increased

## COc1cccc2c1C(=O)c1c(O)c3c(c(O)c1C2=O)C[C@@](O)(C(C)=O)C[C@@H]3O[C@H]1C[C@H](N)[C@H](O)[C@H](C)O1 [daunorubicin]
HL-1 cells [4]
  expression of circ-Insr: significant downregulation

## CC(=O)O[C@H]1C(=O)[C@@]2(C)[C@H]([C@H](OC(=O)c3ccccc3)[C@]3(O)C[C@H](OC(=O)[C@H](O)[C@@H](NC(=O)c4ccccc4)c4ccccc4)C(C)=C1C3(C)C)[C@]1(OC(C)=O)CO[C@@H]1C[C@@H]2O [paclitaxel]
HL-1 cells [4]
  expression of circ-Insr: no change

## COc1cccc2c1C(=O)c1c(O)c3c(c(O)c1C2=O)C[C@@](O)(C(=O)CO)C[C@@H]3O[C@H]1C[C@H](N)[C@@H](O)[C@H](C)O1 [epirubicin]
HL-1 cells [4]
  expression of circ-Insr: significant downregulation
